Assay results published in EP0635577B1, “Screen for inhibitors of melanin biosynthesis” (BASF AKTIENGESELLSCHAFT, priority 1993, dated 1995).

System: Cladosporium cucumerinum
Experiment: melanin biosynthesis inhibition screen, disk diffusion assay on solidified culture
Format: cell-based
Conditions: not given
Experimental: Potato dextrose medium (PDM) for the screening test is prepared by melting
The mixture is autoclaved as 150 ml aliquots at 121°C for 25 minutes.
A chloramphenicol stock solution is prepared to contain 15 mg chloramphenicol per mL absolute ethanol and is stored at -20°C.
Conidia from Cladosporium cucumerinum, 10^7/mL in 0.03% Tween 20™, retain their viability for at least 12 weeks of storage in 1.8 ml cryovials at -85°C. Inoculum for running the screen are raised once every three months and stored without a cryoprotectant at the working concentration of 10^7 conidia/mL.
Fresh inoculum suspensions are prepared from conidial suspensions stored at -85°C. A cryovial is thawed by hand-heat, and 200 uL spread on the surface of PDA in 9 cm Petri dishes. Plates are placed in a resin box (to prevent fungal escape) and incubated at room temperature, 40 cm below laboratory fluorescent lights. Seven days later conidia are collected. Five mL of 0.03% Tween 20™ is added to each plate, and the conidia are released by rubbing the mycelium with a glass rod. The suspension is passed through a layer of sterile Miracloth™ and the concentration adjusted to 10^7 conidia/mL in 0.03% Tween 20™ using a haemocytometer. Aliquots of 1 mL are dispensed into cryovials and placed in a polystyrene holder to freeze slowly to -85°C.
For the test, 150 mL of PDM is cooled to 35°C, and 0.1 mL of chloramphenicol stock solution is added by gentle swirling. A vial of C. cucumerinum conidial suspension (10^7 conidia/ml in Tween 20™) thawed with hand-heat is mixed into the growth medium using gentle swirling. The mixture is poured immediately into a Biotray, and the agar is allowed to solidify.
Test compounds are applied to 0.63 cm (¼ inch) filter disks. Each test includes a positive control, 200 ng tricyclazole in 20% dimethyl sulphoxide (DMSO). The plate is incubated at room-temperature (∼23°C) 40 cm below laboratory fluorescent lights. The plate is read 40 hours later. […] The Biotrays are autoclaved before disposal.
The compounds are applied as 20 ul droplets from a 1 mg/ml stock solution.

SMILES	Observation: inhibits, radius cleared
C[C@@H]1C[C@@H]([C@H](O)CC2CC(=O)NC(=O)C2)C(=O)[C@@H](C)C1 [Cycloheximide]	inhibits, 22 mm radius cleared
CN1C(=O)[C@]23CC4=CC=C[C@H](O)[C@H]4N2C(=O)[C@@]1(CO)SS3 [Gliotoxin]	inhibits, 17 mm radius cleared

Same assay, conditions: Antifungal Panel; effect on growth and pigmentation in words; 20 ul droplets from a 1 mg/ml stock solution on filter disk; read 40 hours later

SMILES	Observation
C[C@@H]1[C@H](O)[C@@H](C)/C=C/C=C/C=C/C=C/C=C/C=C/C=C/[C@H](O[C@@H]2O[C@H](C)[C@@H](O)[C@H](N)[C@@H]2O)C[C@@H]2O[C@](O)(C[C@@H](O)C[C@@H](O)[C@H](O)CC[C@@H](O)C[C@@H](O)CC(=O)O[C@H]1C)C[C@H](O)[C@H]2C(=O)O [Amphotericin B]	no effect on growth or pigmentation
COCC(=O)N(c1c(C)cccc1C)C(C)C(=O)OC (centres unmarked) [Metalaxyl]	no effect on growth or pigmentation

Same assay, conditions: Antifungal Panel; growth inhibition zone; 20 ul droplets from a 1 mg/ml stock solution on filter disk; read 40 hours later

SMILES	Observation: inhibits, radius cleared
Nc1nc(=O)[nH]cc1F [5-Fluoro-Cytosine]	inhibits, 35 mm radius cleared
Nc1nc[nH]n1 [Amino-triazole]	inhibits, 13 mm radius cleared
CCCCNC(=O)n1c(NC(=O)OC)nc2ccccc21 [Benomyl]	inhibits, 31 mm radius cleared
CC1=C(C(=O)Nc2ccccc2)SCCO1 [Carboxin]	inhibits, 21 mm radius cleared
CC(C)(C)C(O)/C(=C\c1ccc(Cl)cc1Cl)n1cncn1 (centres unmarked) [Diniconazole]	inhibits, 27 mm radius cleared
Clc1ccc(COC(Cn2ccnc2)c2ccc(Cl)cc2Cl)cc1 (centres unmarked) [Econazole]	inhibits, 32 mm radius cleared
OC(c1ccc(Cl)cc1)(c1cncnc1)c1ccccc1Cl (centres unmarked) [Fenarimole]	inhibits, 22 mm radius cleared
Clc1cc(Cl)c(OCC#CI)cc1Cl [Haloprofin]	inhibits, 13 mm radius cleared
NC[C@H]1O[C@H](O[C@H]2[C@H](O)[C@@H](O[C@H]3O[C@H](CO)[C@@H](O)[C@H](N)[C@H]3O)[C@H](N)C[C@@H]2N)[C@H](O)[C@@H](O)[C@@H]1O [Kanamycin]	inhibits, 10 mm radius cleared
CC(=O)N1CCN(c2ccc(OCC3COC(Cn4ccnc4)(c4ccc(Cl)cc4Cl)O3)cc2)CC1 (centres unmarked) [Ketoconazole]	inhibits, 26 mm radius cleared
Clc1ccc(COC(Cn2ccnc2)c2ccc(Cl)cc2Cl)c(Cl)c1 (centres unmarked) [Miconazole]	inhibits, 31 mm radius cleared

Same assay, conditions: C. cucumerinum Antibiotic Panel; effect on growth and pigmentation in words; screen of Example 1

SMILES	Observation
C[C@H]1CCC/C=C/[C@@H]2C[C@H](O)C[C@H]2[C@H](O)/C=C/C(=O)O1 [Ascotoxin]	no effect on growth or pigmentation

Same assay, conditions: C. cucumerinum Antibiotic Panel; growth inhibition zone; screen of Example 1

SMILES	Observation: inhibits, radius cleared
Nc1ccn([C@@H]2O[C@H]([C@H](O[C@@H]3O[C@H](CO)[C@@H](O)[C@H](N)[C@H]3O)[C@@H](O)[C@@H](O)[C@H](O)[C@H](O)CO)[C@@H](N)[C@H](O)[C@H]2O)c(=O)n1 [Anthelmycin]	inhibits, 14 mm radius cleared
CN[C@@H]1C[C@H](N)[C@@H](O)[C@H](O[C@@H]2O[C@H](CO)[C@H](O)[C@@H]3OC4(O[C@H]23)O[C@H]([C@@H](N)CO)[C@H](O)[C@H](O)[C@H]4O)[C@H]1O (some centres unmarked) [Destomycin A]	inhibits, 18 mm radius cleared
C/C=C/[C@H]1O[C@@](O)([C@@H](C)[C@H](O)[C@H](C)[C@H]2OC(=O)/C(OC)=C/C(C)=C/[C@@H](C)[C@@H](O)[C@@H](CC)[C@@H](O)[C@H](C)C/C(C)=C/C=C/[C@@H]2OC)C[C@@H](O[C@H]2C[C@@H](O)[C@H](OC(N)=O)[C@@H](C)O2)[C@@H]1C [Folimycin]	inhibits, 4 mm radius cleared

Same assay, conditions: C. cucumerinum Antibiotic Panel; screen of Example 1

SMILES	Observation: fungal thinning, radius
COc1oc([C@H]2C/C(=C/C(C)=C/c3ccc([N+](=O)[O-])cc3)CO2)c(C)c(=O)c1C [Mycolutein]	fungal thinning, 16 mm radius
